# Reference: ChEMBL document CHEMBL5661983, “The selective anaplastic lymphoma receptor tyrosine kinase inhibitor ASP3026 induces tumor regression and prolongs survival in non-small cell lung cancer model mice” (Mol Cancer Ther, 2014)
# Activity calls are given as the source filed them. The rule behind the calls is not given here.
# How the values were obtained:
# [1] = Toxicity in human NCI-H2228 cell xenografted NOD.CB17-Prkdcscid/J mouse assessed as body weight loss at 50 mg/kg, iv administered once daily for 5 days; assay type: organism-based; details: in vivo, 120 h, time 5 day
# NCI-H2228 [2] = experiment: Antitumor activity against human NCI-H2228 cells xenografted in NOD.CB17-Prkdcscid/J mouse assessed as reduction in tumor volume at 50 mg/kg, iv administered daily for 5 days; assay type: functional, organism-based; details: time 5.0 day
# NCI-H2228 [3] = experiment: Antitumor activity against human NCI-H2228 cells xenografted in NOD.CB17-Prkdcscid/J mouse assessed as increase in tumor regression at 12 mg/kg, iv administered daily for 5 days; assay type: functional, organism-based; details: time 5.0 day
Compound,Activity [1],Activity (NCI-H2228 [2]),Activity (NCI-H2228 [3])
Nc1nc2[nH]cc(CCc3ccc(C(=O)N[C@@H](CCC(=O)O)C(=O)O)cc3)c2c(=O)[nH]1 [PEMETREXED],Toxic,Active,–
CC(=O)O[C@H]1C(=O)[C@@]2(C)[C@H]([C@H](OC(=O)c3ccccc3)[C@]3(O)C[C@H](OC(=O)[C@H](O)[C@@H](NC(=O)c4ccccc4)c4ccccc4)C(C)=C1C3(C)C)[C@]1(OC(C)=O)CO[C@@H]1C[C@@H]2O,–,–,Active
